Assay results as given in article PMC10653868, “The LytS-type histidine kinase BtsS is a 7-transmembrane receptor that binds pyruvate” (mBio, 2023).

Assays:
Assay in all cases: DRaCALA with […]-pyruvate and competition with cold pyruvate, membrane vesicles
Assay type in all cases: binding
[1] = target: T1, BtsS (Escherichia coli, UniProt P0AD14)
T1 construct: BtsS-6His in membrane vesicles of E. coli MG1655 ΔbtsSRΔypdABC

[2] = target: T2, BtsS (Escherichia coli, UniProt P0AD14, C110A)
T2 construct: BtsS-C110A-6His in membrane vesicles of E. coli MG1655 ΔbtsSRΔypdABC

[3] = target: T3, BtsS (Escherichia coli, UniProt P0AD14, R72A)
T3 construct: BtsS-R72A-6His in membrane vesicles of E. coli MG1655 ΔbtsSRΔypdABC

[4] = target: T4, BtsS (Escherichia coli, UniProt P0AD14, S113A)
T4 construct: BtsS-S113A-6His in membrane vesicles of E. coli MG1655 ΔbtsSRΔypdABC

[5] = target: T5, BtsS (Escherichia coli, UniProt P0AD14, R99A)
T5 construct: BtsS-R99A-6His in membrane vesicles of E. coli MG1655 ΔbtsSRΔypdABC
T5 sequence (P0AD14 whole entry R99A): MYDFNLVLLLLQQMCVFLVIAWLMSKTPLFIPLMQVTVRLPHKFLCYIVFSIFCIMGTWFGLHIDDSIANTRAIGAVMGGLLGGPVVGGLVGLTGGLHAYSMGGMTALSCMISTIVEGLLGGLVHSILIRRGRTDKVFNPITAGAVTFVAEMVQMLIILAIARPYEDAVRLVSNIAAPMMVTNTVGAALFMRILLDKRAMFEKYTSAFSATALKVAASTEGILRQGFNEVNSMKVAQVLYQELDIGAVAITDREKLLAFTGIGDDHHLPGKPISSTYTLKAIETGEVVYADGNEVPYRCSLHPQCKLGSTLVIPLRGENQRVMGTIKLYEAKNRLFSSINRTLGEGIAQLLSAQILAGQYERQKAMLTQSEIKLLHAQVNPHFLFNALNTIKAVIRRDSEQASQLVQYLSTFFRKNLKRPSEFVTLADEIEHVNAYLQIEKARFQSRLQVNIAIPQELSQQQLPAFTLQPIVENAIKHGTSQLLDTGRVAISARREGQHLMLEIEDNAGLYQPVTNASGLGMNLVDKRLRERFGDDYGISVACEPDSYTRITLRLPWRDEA

T1 sequence (P0AD14 whole entry): as the sequence (P0AD14 whole entry R99A) above, with A99R counted along it
T2 sequence (P0AD14 whole entry C110A): as the sequence (P0AD14 whole entry R99A) above, with A99R, C110A counted along it
T4 sequence (P0AD14 whole entry S113A): as the sequence (P0AD14 whole entry R99A) above, with A99R, S113A counted along it
T3 sequence (P0AD14 whole entry R72A): as the sequence (P0AD14 whole entry R99A) above, with R72A, A99R counted along it

CC(=O)C(=O)O [pyruvate]
Kd [1]: 67.3 ± 10.6 µM
Kd [2]: 375 ± 21.2 µM
Kd [3]: 107 ± 12.3 µM
Kd [4]: 284 ± 8 µM
Kd [5]: 245 ± 10.1 µM
